Test results: article PMC3560935 (Anesthesiology, 2011)
Entries after “also recorded” stand apart in the source; their conditions may differ.

How the values were obtained:
[1] = biological target: human nociceptin receptor (Homo sapiens, UniProt P41146); assay type: binding
[2] = tested on: Swiss-Webster mice; details: mouse, in vivo
[3] = mouse, in vivo
[4] = tested on: Swiss-Webster mice; details: mouse, in vivo; remark: listed apart in the source
[5] = tested on: Swiss-Webster mice; details: mouse, in vivo; remark: listed apart in the source
[6] = administered intracerebroventricularly; cited from earlier work

human nociceptin receptor, sequence (P41146 whole entry): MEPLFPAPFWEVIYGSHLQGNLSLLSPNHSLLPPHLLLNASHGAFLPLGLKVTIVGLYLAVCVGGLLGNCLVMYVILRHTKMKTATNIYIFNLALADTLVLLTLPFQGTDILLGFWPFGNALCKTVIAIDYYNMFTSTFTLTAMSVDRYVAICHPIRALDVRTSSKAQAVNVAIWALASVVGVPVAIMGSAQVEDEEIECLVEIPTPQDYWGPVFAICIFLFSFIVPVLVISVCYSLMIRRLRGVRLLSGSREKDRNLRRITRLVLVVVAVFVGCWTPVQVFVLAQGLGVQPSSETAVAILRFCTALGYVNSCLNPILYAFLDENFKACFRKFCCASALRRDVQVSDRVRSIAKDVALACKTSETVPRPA

Buprenorphine
affinity for the nociceptin receptor (in words) [1]: low affinity | dose with the greatest analgesic response [2]: 0.3 mg/kg | time to onset of antinociception [2]: 30 min | time to peak antinociceptive effect [2]: 45 min

CO[C@]12CC[C@@]3(C[C@@H]1[C@](C)(O)C(C)(C)C)[C@H]1Cc4ccc(O[C@@H]5O[C@H](C(=O)O)[C@@H](O)[C@H](O)[C@H]5O)c5c4[C@@]3(CCN1CC1CC1)[C@H]2O5 [Buprenorphine-3-glucuronide, buprenorphine-3-glucuronide]
Ki ([1]; read-out: apparent Ki, Nociceptin): 36 ± 0.3 µM | Concentration, Brain Homogenate [3]: 1.4 ± 0.7 ng/mL | Concentration, Plasma [3]: 133 ± 44 ng/mL | effect on minute ventilation (in words) [4]: Neither buprenorphine nor B3G affected | effect on respiratory rate (in words) [4]: Neither B3G nor N3G had a significant effect | total locomotor activity compared to control / sedation (in words) [5]: did not cause a decrease | antinociceptive effect (in words) [2]: small antinociceptive effect; also recorded: mild antinociceptive activity

CN1CC[C@]23c4c5ccc(O)c4O[C@H]2[C@@H](O[C@@H]2O[C@H](C(=O)O)[C@@H](O)[C@H](O)[C@H]2O)C=C[C@H]3[C@H]1C5 [Morphine-6-glucuronide]
potency relative to morphine [6]: 300 times
